Experimental data taken from patent US6306860A, “2,5-pyridinedicarboxylic acid derivatives” (Dong Wha Pharm. Inc. Co., Ltd., priority 1998, dated 2001).
Counter-ions that a name gives are not always drawn.

How the values were obtained:
[1] = biological target: T1, HIV reverse transcriptase (Human immunodeficiency virus type 1 group M subtype B, UniProt P04585); experiment: In vitro inhibition test against HIV reverse transcriptase; format: biochemical; conditions: read-out: Inhibitory activity of HIV-RT (%); for inhibition at 0.1 µg/mL: 0.1 μg/ml; for inhibition at 1 µg/mL: 1 μg/ml
T1 construct: purchased Boehringer Mannheim
Procedure: Experiment 2: The in vitro Inhibition Test Against HIV Reverse Transcriptase
The inhibitory activity in vitro was measured using a non-radioactive reverse transcriptase assay Kit (Boehringer Mannheim).
At first, 20 μl(40 ng) of HIV-RT was added to the wells, coated with streptavidin and with the addition of 20 μl reaction mixture containing template/primer hybrid poly(A)/oligo(dT)15 and DIG-(digoxigenin)-dUTP, biotin-dUTP and TTP, 20 μl of test compound was added and reacted at 37° C. for 1 hour. The control without test compound was used for the comparison of related activity. Since DNA containing nucleotide labeled with digoxigenin and biotine was prepared by the action of HIV-RT, it was combined with streptavidin coated at the bottom of the wells. After the reaction was completed, remaining impurities were removed by washing each well with 250 μl buffer solution (pH 7.0) for 30 seconds 5 times and with the addition of 200 μl anti-DIG-POD antibody, the mixture was reacted at 37° C. for 1 hour. For the removal of remaining impurities again, the reacting solution was washed with a buffer solution and with the addition of 200 μl ABTS™ each, a substrate of POD(peroxidase), the solution was reacted at room temperature for 30 minutes. The absorbance was read by ELISA reader at 405 nm for the assay of reverse transcriptase activity and its inhibition activity.

HBV polymerase = biological target: T2, HBV polymerase (Hepatitis B virus genotype D subtype ayw, UniProt P03156); experiment: Inhibitory activities against HBV polymerase (reverse transcriptase activity) in vitro; format: biochemical; conditions: read-out: Inhibitory activity of HBV-RT (%); for inhibition at 0.01 µg/mL: 0.01 μg/ml; for inhibition at 0.1 µg/mL: 0.1 μg/ml; for inhibition at 1 µg/mL: 1 μg/ml
T2 construct: made in house; host or cells: E. coli
From the text: Experiment 1:Inhibitory Activities Against HBV Polymerase in vitro
Recently, the inventors of the present invention have produced a recombinant HBV polymerase that is expressed from E.coli transformant, measured its enzyme activity and filed patent applications threrof [Korean Pat. Appl. Nos. 94-3918 and 96-33998].
The inventors have also established a method of measuring the reverse transcriptase activity of HBV polymerase in vitro. The fundamental principle is the same as the ELISA method, and after reacting the substrate with biotin- and DIG-modified nucleotide, a method of recognizing the polymerized substrate as anti-DIG antibody with peroxidase was used.
20 μl of HBV polymerase, 20 μl of reaction mixture and 20 μl of test compound was mixed and reacted at 14° C.~30° C. for 18~24 hours. Then, the inhibitory effect of the test compound against reverse transcriptase activity in the HBV polymerase was examined, compared with the results of control tests without the test compound.

T2 sequence (P03156 whole entry): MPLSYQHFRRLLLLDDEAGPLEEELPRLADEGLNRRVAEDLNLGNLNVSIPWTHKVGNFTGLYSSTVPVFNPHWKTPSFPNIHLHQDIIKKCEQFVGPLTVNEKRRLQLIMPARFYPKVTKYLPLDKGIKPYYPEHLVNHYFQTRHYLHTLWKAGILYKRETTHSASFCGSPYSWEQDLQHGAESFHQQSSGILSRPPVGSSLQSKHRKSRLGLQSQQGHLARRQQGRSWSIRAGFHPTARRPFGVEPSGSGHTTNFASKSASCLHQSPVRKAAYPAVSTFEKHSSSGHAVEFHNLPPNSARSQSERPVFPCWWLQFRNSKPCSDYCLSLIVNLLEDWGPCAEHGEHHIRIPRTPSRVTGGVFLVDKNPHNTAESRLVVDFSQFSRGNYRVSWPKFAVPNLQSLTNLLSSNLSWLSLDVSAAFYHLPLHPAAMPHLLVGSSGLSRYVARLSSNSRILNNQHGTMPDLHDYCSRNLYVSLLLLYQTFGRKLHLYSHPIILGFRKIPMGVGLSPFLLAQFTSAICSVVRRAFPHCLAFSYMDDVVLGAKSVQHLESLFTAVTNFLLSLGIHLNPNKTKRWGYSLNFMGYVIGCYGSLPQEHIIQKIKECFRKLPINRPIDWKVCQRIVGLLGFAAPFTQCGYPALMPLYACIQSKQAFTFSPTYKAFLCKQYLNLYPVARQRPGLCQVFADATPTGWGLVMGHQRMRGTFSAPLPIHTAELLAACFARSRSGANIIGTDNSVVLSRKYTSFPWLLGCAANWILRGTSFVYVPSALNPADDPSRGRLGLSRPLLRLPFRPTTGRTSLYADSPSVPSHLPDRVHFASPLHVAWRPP

With `CC(C)Nc1cccnc1N1CCN(C(=O)c2ccc(C(=O)NCCN3CCOCC3)cn2)CC1` [Exam. 59, 2-[1-[3-(isopropylamino)-2-pyridyl]piperazin-4-yl-carbonyl]-5-[N-[2-(morpholin-4-yl)ethyl]carbamoyl]pyridine] the inhibition at 0.1 µg/mL [1] was 15%, the inhibition at 1 µg/mL [1] was 61% and the inhibition at 0.01 µg/mL (HBV polymerase) was 49%. For the same compound, the inhibition at 0.1 µg/mL (HBV polymerase) was 60% and the inhibition at 1 µg/mL (HBV polymerase) was 70%.
`CCNc1cccnc1N1CCN(C(=O)c2ccc(C(=O)NCCN3CCOCC3)cn2)CC1` [Exam. 60, 2-[1-[3-(ethylamino)-2-pyridyl]piperazin-4-yl-carbonyl]-5-[N-[2-(morpholin4-yl)ethyl]carbamoyl]pyridine.HCl] showed an inhibition at 0.1 µg/mL [1] of 55%, an inhibition at 1 µg/mL [1] of 73% and an inhibition at 0.01 µg/mL (HBV polymerase) of 30%. The inhibition at 0.1 µg/mL (HBV polymerase) was 52% and the inhibition at 1 µg/mL (HBV polymerase) was 66%.
With `CC(C)Nc1cccnc1N1CCN(C(=O)c2ccc(C(=O)NCCN(C)C)cn2)CC1` [Exam. 62, 5-[N-[2-(dimethylamino)ethyl]carbamoyl]-2-[1-[3-(isopropylamino)-2-pyridyl]piperazin-4-yl-carbonyl]pyridine.HCl] the inhibition at 0.1 µg/mL [1] was 63%, the inhibition at 1 µg/mL [1] was 79% and the inhibition at 0.01 µg/mL (HBV polymerase) was 47%. The inhibition at 0.1 µg/mL (HBV polymerase) was 58% and the inhibition at 1 µg/mL (HBV polymerase) was 69%.
For `Cc1cc(NC(=O)c2ccc(C(=O)N3CCN(c4ncccc4NC(C)C)CC3)nc2)n[nH]1` [Exam. 66, 6-[1-[3-(isopropylamino)-2-pyridyl]piperazin-4-yl-carbonyl]-N-(5-methyl-1H-pyrazol-3-yl)nicotinamide], the inhibition at 0.1 µg/mL [1] was 52%, the inhibition at 1 µg/mL [1] was 76% and the inhibition at 0.01 µg/mL (HBV polymerase) was 20%. For the same compound, the inhibition at 0.1 µg/mL (HBV polymerase) was 53% and the inhibition at 1 µg/mL (HBV polymerase) was 70%.
Compound `Cc1cc(NC(=O)c2ccc(C(=O)N3CCN(c4ncccc4NC(C)C)CC3)nc2)no1` [Exam. 67, 6-[1-[3-(isopropylamino)-2-pyridyl]piperazin-4-yl-carbonyl]-N-(5-methylisoxazol-3-yl)nicotinamide] has an inhibition at 0.1 µg/mL [1] of 30%, an inhibition at 1 µg/mL [1] of 58% and an inhibition at 0.01 µg/mL (HBV polymerase) of 25%. The inhibition at 0.1 µg/mL (HBV polymerase) was 50% and the inhibition at 1 µg/mL (HBV polymerase) was 72%.
`Cc1csc(NC(=O)c2ccc(C(=O)N3CCN(c4ncccc4NC(C)C)CC3)nc2)n1` [Exam. 68, 6-[1-[3-(isopropylamino)-2-pyridyl)piperazin-4-yl-carbonyl]-N-(4-methyl-1,3-thiazol-2-yl)nicotinamide] gave an inhibition at 0.1 µg/mL [1] of 53%, an inhibition at 1 µg/mL [1] of 70% and an inhibition at 0.01 µg/mL (HBV polymerase) of 30%. The inhibition at 0.1 µg/mL (HBV polymerase) was 69% and the inhibition at 1 µg/mL (HBV polymerase) was 81%.
`CC(C)Nc1cccnc1N1CCN(C(=O)c2ccc(C(=O)Nc3nncs3)cn2)CC1` [Exam. 69, 6-[1-[3-(isopropylamino)-2-pyridyl]piperazin-4-yl-carbonyl]-N-(1,3,4-thiadiazol-2-yl)nicotinamide] was tested, and the inhibition at 0.1 µg/mL [1] was 35%, the inhibition at 1 µg/mL [1] was 67% and the inhibition at 0.01 µg/mL (HBV polymerase) was 12%. For the same compound, the inhibition at 0.1 µg/mL (HBV polymerase) was 47% and the inhibition at 1 µg/mL (HBV polymerase) was 64%.
For `CC(C)Nc1cccnc1N1CCN(C(=O)c2ccc(C(=O)Nc3ccccn3)cn2)CC1` [Exam. 70, 6-[1-[3-(isopropylamino)-2-pyridyl]piperazin-4-yl-carbonyl]-N-(2-pyridyl)nicotinamide], the inhibition at 0.1 µg/mL [1] was 55%, the inhibition at 1 µg/mL [1] was 74% and the inhibition at 0.01 µg/mL (HBV polymerase) was 26%. For the same compound, the inhibition at 0.1 µg/mL (HBV polymerase) was 55% and the inhibition at 1 µg/mL (HBV polymerase) was 74%.
For `COc1ccc(NC(=O)c2ccc(C(=O)N3CCN(c4ncccc4NC(C)C)CC3)nc2)cn1` [Exam. 71, 6-[1-[3-(isopropylamino)-2-pyridyl]piperazin-4-yl-carbonyl]-N-(6-methoxy-3-pyridyl)nicotinamide], the inhibition at 0.1 µg/mL [1] was 48%, the inhibition at 1 µg/mL [1] was 74% and the inhibition at 0.01 µg/mL (HBV polymerase) was 59%. For the same compound, the inhibition at 0.1 µg/mL (HBV polymerase) was 70% and the inhibition at 1 µg/mL (HBV polymerase) was 83%.
`CC(C)Nc1cccnc1N1CCN(C(=O)c2ccc(C(=O)Nc3cnccn3)cn2)CC1` [Exam. 72, 6-[1-[3-(isopropylamino)-2-pyridyl]piperazin-4-yl-carbonyl]-N-(pyrazine-2-yl)nicotinamide] was tested, and the inhibition at 0.1 µg/mL [1] was 66%, the inhibition at 1 µg/mL [1] was 83% and the inhibition at 0.01 µg/mL (HBV polymerase) was 16%. For the same compound, the inhibition at 0.1 µg/mL (HBV polymerase) was 53% and the inhibition at 1 µg/mL (HBV polymerase) was 64%.
`CC(C)Nc1cccnc1N1CCN(C(=O)c2ccc(C(=O)NCc3ccccn3)cn2)CC1` [Exam. 73, 6-[1-[3-(isopropylamino)-2-pyridyl]piperazin-4-yl-carbonyl]-N-(2-pyridylmethyl)nicotinamide.HCl] was tested, and the inhibition at 0.1 µg/mL [1] was 57%, the inhibition at 1 µg/mL [1] was 73% and the inhibition at 0.01 µg/mL (HBV polymerase) was 53%. For the same compound, the inhibition at 0.1 µg/mL (HBV polymerase) was 62% and the inhibition at 1 µg/mL (HBV polymerase) was 77%.
`CCNc1cccnc1N1CCN(C(=O)c2ccc(C(=O)NCc3ccccn3)cn2)CC1` [Exam. 74, 6-[1-[3-(ethylamino)-2-pyridyl]piperazin-4-yl-carbonyl]-N-(2-pyridylmethyl)nicotinamide] showed an inhibition at 0.1 µg/mL [1] of 61%, an inhibition at 1 µg/mL [1] of 80% and an inhibition at 0.01 µg/mL (HBV polymerase) of 19%. It also gave an inhibition at 0.1 µg/mL (HBV polymerase) of 56% and an inhibition at 1 µg/mL (HBV polymerase) of 70%.
`Nc1cccnc1N1CCN(C(=O)c2ccc(C(=O)NCc3ccccn3)cn2)CC1` [Exam. 75, 6-[1-(3-amino-2-pyridyl)piperazin-4-yl-carbonyl]-N-(2-pyridylmethyl)nicotinamide.HCl] gave an inhibition at 0.1 µg/mL [1] of 53%, an inhibition at 1 µg/mL [1] of 72% and an inhibition at 0.01 µg/mL (HBV polymerase) of 22%. For the same compound, the inhibition at 0.1 µg/mL (HBV polymerase) was 54% and the inhibition at 1 µg/mL (HBV polymerase) was 72%.
`CC(C)Nc1cccnc1N1CCN(C(=O)c2ccc(C(=O)NCc3cccnc3)cn2)CC1` [Exam. 76, 6-[1-[3-(isopropylamino)-2-pyridyl]piperazin-4-yl-carbonyl]-N-(3-pyridylmethyl)nicotinamide] showed an inhibition at 0.1 µg/mL [1] of 57%, an inhibition at 1 µg/mL [1] of 82% and an inhibition at 0.01 µg/mL (HBV polymerase) of 30%. For the same compound, the inhibition at 0.1 µg/mL (HBV polymerase) was 53% and the inhibition at 1 µg/mL (HBV polymerase) was 62%.
Compound `CC(C)Nc1cccnc1N1CCN(C(=O)c2ccc(C(=O)NCc3ccncc3)cn2)CC1` [Exam. 77, 6-[1-[3-(isopropylamino)-2-pyridyl]piperazin-4-yl-carbonyl]-N-(4-pyridylmethyl)nicotinamide] has an inhibition at 0.1 µg/mL [1] of 59%, an inhibition at 1 µg/mL [1] of 79% and an inhibition at 0.01 µg/mL (HBV polymerase) of 39%. It also gave an inhibition at 0.1 µg/mL (HBV polymerase) of 65% and an inhibition at 1 µg/mL (HBV polymerase) of 79%.
Work on `Cc1ncc(CO)c(CNC(=O)c2ccc(C(=O)N3CCN(c4ncccc4NC(C)C)CC3)nc2)c1O` [Exam. 78] yielded an inhibition at 0.1 µg/mL [1] of 52%, an inhibition at 1 µg/mL [1] of 70% and an inhibition at 0.01 µg/mL (HBV polymerase) of 15%. For the same compound, the inhibition at 0.1 µg/mL (HBV polymerase) was 58% and the inhibition at 1 µg/mL (HBV polymerase) was 62%.
Work on `CC(C)Nc1cccnc1N1CCN(C(=O)c2ccc(C(=O)NCc3ccco3)cn2)CC1` [Exam. 79, N-(2-Furylmethyl)-6-[1-[3-(isopropylamino)-2-pyridyl]piperazin-4-yl-carbonyl]nicotinamide.HCl] yielded an inhibition at 0.1 µg/mL [1] of 20%, an inhibition at 1 µg/mL [1] of 54% and an inhibition at 0.01 µg/mL (HBV polymerase) of 54%. For the same compound, the inhibition at 0.1 µg/mL (HBV polymerase) was 63% and the inhibition at 1 µg/mL (HBV polymerase) was 78%.
`CC(C)Nc1cccnc1N1CCN(C(=O)c2ccc(C(=O)NCCc3c[nH]cn3)cn2)CC1` [Exam. 80, N-[2-(1H-imidazol4-yl)ethyl]-6-[1-[3-(isopropylamino)-2-pyridyl]piperazin-4-yl-carbonyl]nicotinamide] was tested, and the inhibition at 0.1 µg/mL [1] was 21%, the inhibition at 1 µg/mL [1] was 48% and the inhibition at 0.01 µg/mL (HBV polymerase) was 52%. It also gave an inhibition at 0.1 µg/mL (HBV polymerase) of 61% and an inhibition at 1 µg/mL (HBV polymerase) of 70%.
`CC(C)Nc1cccnc1N1CCN(C(=O)c2ccc(C(=O)NCCc3cccs3)cn2)CC1` [Exam. 81, 6-[1-[3-(isopropylamino)-2-pyridyl]piperazin-4-yl-carbonyl]-N-[2-(2-thienyl)ethyl]nicotinamide] showed an inhibition at 0.1 µg/mL [1] of 54%, an inhibition at 1 µg/mL [1] of 75% and an inhibition at 0.01 µg/mL (HBV polymerase) of 44%. The inhibition at 0.1 µg/mL (HBV polymerase) was 60% and the inhibition at 1 µg/mL (HBV polymerase) was 80%.
`CC(C)Nc1cccnc1N1CCN(C(=O)c2ccc(C(=O)NCCc3ccccn3)cn2)CC1` [Exam. 82, 6-[1-[3-(isopropylamino)-2-pyridyl]piperazin-4-yl-carbonyl]-N-[2-(2-pyridyl)ethyl]nicotinamide] gave an inhibition at 0.1 µg/mL [1] of 65%, an inhibition at 1 µg/mL [1] of 80% and an inhibition at 0.01 µg/mL (HBV polymerase) of 24%. It also gave an inhibition at 0.1 µg/mL (HBV polymerase) of 53% and an inhibition at 1 µg/mL (HBV polymerase) of 67%.
Compound `CC(C)Nc1cccnc1N1CCN(C(=O)c2ccc(C(=O)NCCCn3ccnc3)cn2)CC1` [Exam. 83, N-[3-(1H-imidazol-1-yl)propyl]-6-[1-[3-(isopropylamino)-2-pyridyl]piperazin-4-yl-carbonyl]nicotinamide] has an inhibition at 0.1 µg/mL [1] of 30%, an inhibition at 1 µg/mL [1] of 62% and an inhibition at 0.01 µg/mL (HBV polymerase) of 65%. The inhibition at 0.1 µg/mL (HBV polymerase) was 72% and the inhibition at 1 µg/mL (HBV polymerase) was 89%.
